Legend:
UACC-257 [1] = test: Growth inhibition of human UACC257 cells assessed as cell growth at 10 uM after 48 hrs by sulforhodamine B assay; format: functional; conditions: UACC-257, 48 h, read-out: Activity
RPMI-8226 = test: Growth inhibition of human RPMI8226 cells assessed as cell growth at 10 uM after 48 hrs by sulforhodamine B assay; format: functional; conditions: RPMI-8226, 48 h, read-out: Activity
ACHN [2] = test: Growth inhibition of human ACHN cells assessed as cell growth at 10 uM after 48 hrs by sulforhodamine B assay; format: functional; conditions: read-out: Activity
NCI-H322M = test: Growth inhibition of human NCI-H322M cells assessed as cell growth at 10 uM after 48 hrs by sulforhodamine B assay; format: functional; conditions: read-out: Activity
SW-620 [3] = test: Growth inhibition of human SW620 cells assessed as cell growth at 10 uM after 48 hrs by sulforhodamine B assay; format: functional; conditions: SW-620, 48 h, read-out: Activity
[4] = Growth inhibition of human HCC2998 cells after 48 hrs by sulforhodamine B assay; format: functional; conditions: HCC 2998, 48 h
SF-295 = test: Growth inhibition of human SF295 cells after 48 hrs by sulforhodamine B assay; format: functional, cell-based; conditions: SF-295, 48 h
SF-539 [5] = test: Growth inhibition of human SF539 cells assessed as cell growth at 10 uM after 48 hrs by sulforhodamine B assay; format: functional; conditions: SF-539, 48 h, read-out: Activity
KM12 = test: Growth inhibition of human KM12 cells assessed as cell growth at 10 uM after 48 hrs by sulforhodamine B assay; format: functional; conditions: KM12, 48 h, read-out: Activity
DU-145 = test: Growth inhibition of human DU145 cells assessed as cell growth at 10 uM after 48 hrs by sulforhodamine B assay; format: functional; conditions: DU-145, 48 h, read-out: Activity
MCF7 = test: Growth inhibition of human MCF7 cells assessed as cell growth at 10 uM after 48 hrs by sulforhodamine B assay; format: functional; conditions: MCF7, 48 h, read-out: Activity
NCI-H522 = test: Growth inhibition of human NCI-H522 cells after 48 hrs by sulforhodamine B assay; format: functional; conditions: NCI-H522, 48 h
UACC-257 [6] = test: Growth inhibition of human UACC257 cells after 48 hrs by sulforhodamine B assay; format: functional; conditions: UACC-257, 48 h
MDA-MB-435 = test: Growth inhibition of human MDA-MB-435 cells assessed as cell growth at 10 uM after 48 hrs by sulforhodamine B assay; format: functional; conditions: MDA-MB-435, 48 h, read-out: Activity
SW-620 [7] = test: Growth inhibition of human SW620 cells after 48 hrs by sulforhodamine B assay; format: functional; conditions: SW-620, 48 h
BT-549 [8] = test: Growth inhibition of human BT549 cells after 48 hrs by sulforhodamine B assay; format: functional; conditions: BT-549, 48 h
NCI-H226 = test: Growth inhibition of human NCI-H226 cells assessed as cell growth at 10 uM after 48 hrs by sulforhodamine B assay; format: functional; conditions: NCI-H226, 48 h, read-out: Activity
HCT-116 = test: Growth inhibition of human HCT116 cells after 48 hrs by sulforhodamine B assay; format: functional; conditions: HCT-116, 48 h
BT-549 [9] = test: Growth inhibition of human BT549 cells assessed as cell growth at 10 uM after 48 hrs by sulforhodamine B assay; format: functional; conditions: BT-549, 48 h, read-out: Activity
RXF 393 = test: Growth inhibition of human RXF393 cells after 48 hrs by sulforhodamine B assay; format: functional; conditions: RXF 393, 48 h
SN12C = test: Growth inhibition of human SN12C cells assessed as cell growth at 10 uM after 48 hrs by sulforhodamine B assay; format: functional; conditions: read-out: Activity
A498 [10] = test: Growth inhibition of human A498 cells assessed as cell growth at 10 uM after 48 hrs by sulforhodamine B assay; format: functional; conditions: A498, 48 h, read-out: Activity
UACC-62 [11] = test: Growth inhibition of human UACC62 cells after 48 hrs by sulforhodamine B assay; format: functional; conditions: UACC-62, 48 h
COLO 205 = test: Growth inhibition of human COLO205 cells after 48 hrs by sulforhodamine B assay; format: functional; conditions: COLO 205, 48 h
ACHN [12] = test: Growth inhibition of human ACHN cells after 48 hrs by sulforhodamine B assay; format: functional
SK-MEL-28 [13] = test: Growth inhibition of human SK-MEL-28 cells after 48 hrs by sulforhodamine B assay; format: functional; conditions: SK-MEL-28, 48 h
CAKI-1 = test: Growth inhibition of human CAKI-1 cells assessed as cell growth at 10 uM after 48 hrs by sulforhodamine B assay; format: functional; conditions: CAKI-1, 48 h, read-out: Activity
786-0 = test: Growth inhibition of human 786-0 cells assessed as cell growth at 10 uM after 48 hrs by sulforhodamine B assay; format: functional; conditions: 786-0, 48 h, read-out: Activity
UACC-62 [14] = test: Growth inhibition of human UACC62 cells assessed as cell growth at 10 uM after 48 hrs by sulforhodamine B assay; format: functional; conditions: UACC-62, 48 h, read-out: Activity
A498 [15] = test: Growth inhibition of human A498 cells after 48 hrs by sulforhodamine B assay; format: functional, cell-based; conditions: A498, 48 h
SK-MEL-28 [16] = test: Growth inhibition of human SK-MEL-28 cells assessed as cell growth at 10 uM after 48 hrs by sulforhodamine B assay; format: functional; conditions: SK-MEL-28, 48 h, read-out: Activity
MOLT-4 = test: Growth inhibition of human MOLT4 cells assessed as cell growth at 10 uM after 48 hrs by sulforhodamine B assay; format: functional; conditions: MOLT-4, 48 h, read-out: Activity
IGROV-1 = test: Growth inhibition of human IGROV1 cells after 48 hrs by sulforhodamine B assay; format: functional; conditions: IGROV-1, 48 h
SF-539 [17] = test: Growth inhibition of human SF539 cells after 48 hrs by sulforhodamine B assay; format: functional; conditions: SF-539, 48 h
[18] = read-out: LC50 (the source's name)

For `COc1cc(-c2nn(-c3cccc(NC(=O)c4ccc(N5CCOCC5)c(C(F)(F)F)c4)c3)cc2-c2ccncc2)ccc1Cl`, the growth at 10 µM (UACC-257 [1]) was 24.3%, the growth at 10 µM (RPMI-8226) was 8.3% and the growth at 10 µM (ACHN [2]) was 21.3%. It also gave a growth at 10 µM (NCI-H322M) of 54.2%, a growth at 10 µM (SW-620 [3]) of 25.2% and a GI50 [4] of 1070 nM. The TGI [4] was 5.02 µM, the CC50 [4, 18] was greater than 100 µM and the GI50 (SF-295) was 150 nM. The IC50 (SF-295) was 150 nM, the TGI (SF-295) was 1150 nM and the CC50 (SF-295; [18]) was 6.31 µM. It also gave a growth at 10 µM (SF-539 [5]) of -68.9%, a growth at 10 µM (KM12) of 5.64% and a growth at 10 µM (DU-145) of 10.9%. The growth at 10 µM (MCF7) was 8.85%, the GI50 (NCI-H522) was 107 nM and the LC50 (concentration killing 50% of cells) (NCI-H522) was greater than 100 µM. For the same compound, the TGI (NCI-H522) was 3.53 µM, the GI50 (UACC-257 [6]) was 935 nM and the TGI (UACC-257 [6]) was 8.14 µM. For the same compound, the CC50 (UACC-257 [6]; [18]) was greater than 100 µM, the growth at 10 µM (MDA-MB-435) was -35.1% and the GI50 (SW-620 [7]) was 241 nM. For the same compound, the TGI (SW-620 [7]) was greater than 100 µM, the CC50 (SW-620 [7]; [18]) was greater than 100 µM and the GI50 (BT-549 [8]) was 1410 nM. For the same compound, the LC50 (50% lethal concentration) (BT-549 [8]) was greater than 100 µM, the TGI (BT-549 [8]) was greater than 100 µM and the growth at 10 µM (NCI-H226) was 42.5%. For the same compound, the GI50 (HCT-116) was 400 nM, the TGI (HCT-116) was greater than 100 µM and the CC50 (HCT-116; [18]) was greater than 100 µM. It also gave a growth at 10 µM (BT-549 [9]) of 14.3%, a GI50 (RXF 393) of 199 nM and an LC50 (concentration killing 50% of cells) (RXF 393) greater than 100 µM. For the same compound, the TGI (RXF 393) was 674 nM, the growth at 10 µM (SN12C) was 31% and the growth at 10 µM (A498 [10]) was -29.7%. The GI50 (UACC-62 [11]) was 266 nM, the LC50 (50% lethal concentration) (UACC-62 [11]) was greater than 100 µM and the TGI (UACC-62 [11]) was 8.2 µM. The GI50 (COLO 205) was 342 nM, the LC50 (concentration killing 50% of cells) (COLO 205) was 4.15 µM and the TGI (COLO 205) was 1150 nM. For the same compound, the GI50 (ACHN [12]) was 564 nM, the TGI (ACHN [12]) was greater than 100 µM and the CC50 (ACHN [12]; [18]) was greater than 100 µM. For the same compound, the GI50 (SK-MEL-28 [13]) was 1390 nM, the LC50 (SK-MEL-28 [13]) was greater than 100 µM and the TGI (SK-MEL-28 [13]) was greater than 100 µM. The growth at 10 µM (CAKI-1) was 39.9%, the growth at 10 µM (786-0) was -3.26% and the growth at 10 µM (UACC-62 [14]) was 8.35%. It also gave a GI50 (A498 [15]) of 227 nM, an IC50 (A498 [15]) of 230 nM and a TGI (A498 [15]) of 1080 nM. The CC50 (A498 [15]; [18]) was greater than 100 µM, the growth at 10 µM (SK-MEL-28 [16]) was 28.4% and the growth at 10 µM (MOLT-4) was 4.07%. It also gave a GI50 (IGROV-1) of 437 nM, an LC50 (concentration killing 50% of cells) (IGROV-1) greater than 100 µM and a TGI (IGROV-1) of 6.79 µM. For the same compound, the GI50 (SF-539 [17]) was 153 nM and the TGI (SF-539 [17]) was 497 nM.

Reference: ChEMBL document CHEMBL2440076, “New triarylpyrazoles as broad-spectrum anticancer agents: design, synthesis, and biological evaluation” (Eur J Med Chem, 2013)
